Assay results: the supplement of paper PMC10307832

Assays:
Test in all cases: relative viability (nuclei count vs DMSO), 5 days (fraction); higher = more cells survive
[1] = compound: CC[C@@H](C)CNCC(=O)N1CCC2=C([C@@H]1COC3=CC=CC(=C3)C)C=CS2 [RU-SKI 43] + CS(=O)(=O)CCNCc1ccc(-c2ccc3ncnc(Nc4ccc(OCc5cccc(F)c5)c(Cl)c4)c3c2)o1 [Lapatinib] (partner 2 µM)
How it was run: (§1)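 Lung cancer cell lines in 1536-well plates got either a single drug or a fixed anchor-drug dose together with five library-drug doses (not always all listed) in √10 steps, by pin tool, on the day after seeding. Nuclei were counted after 5 days, and relative viability is the treated-to-vehicle ratio of nuclei counts. Values are medians of duplicate plates.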

[2] = compound: CCc1c2c(nc3ccc(OC(=O)N4CCC(N5CCCCC5)CC4)cc13)-c1cc3c(c(=O)n1C2)COC(=O)[C@]3(O)CC [Irinotecan] + C[C@]1(O)C[C@@H](c2nc(-c3ccc4ccc(-c5ccccc5)nc4c3)c3c(N)nccn32)C1 [Linsitinib] (partner 1 µM)
How it was run: as §1

[3] = compound: CCc1c2c(nc3ccc(OC(=O)N4CCC(N5CCCCC5)CC4)cc13)-c1cc3c(c(=O)n1C2)COC(=O)[C@]3(O)CC [Irinotecan] + CC(C)C[C@H](NC(=O)[C@H](Cc1ccccc1)NC(=O)c1cnccn1)B(O)O [Bortezomib] (partner 0.002 µM)
How it was run: as §1

[4] = compound: CC[C@@H](C)CNCC(=O)N1CCC2=C([C@@H]1COC3=CC=CC(=C3)C)C=CS2 [RU-SKI 43] + CC1(C)CCC(c2ccc(Cl)cc2)=C(CN2CCN(c3ccc(C(=O)NS(=O)(=O)c4ccc(N[C@H](CCN5CCOCC5)CSc5ccccc5)c(S(=O)(=O)C(F)(F)F)c4)cc3)CC2)C1 [Navitoclax] (partner 0.5 µM)
How it was run: as §1

Row | Cell Line | relative viability ([1]; first compound 0.1 µM) | relative viability ([1]; first compound 0.3162 µM) | relative viability ([1]; first compound 1 µM) | relative viability ([1]; first compound 3.162 µM) | relative viability ([1]; first compound 10 µM) | relative viability ([2]; first compound 2 µM) | relative viability ([2]; first compound 6.325 µM) | relative viability ([2]; first compound 20 µM) | relative viability ([3]; first compound 2 µM) | relative viability ([3]; first compound 6.325 µM) | relative viability ([3]; first compound 20 µM) | relative viability ([2]; first compound 0.6325 µM) | relative viability ([3]; first compound 0.6325 µM) | relative viability ([4]; first compound 0.1 µM) | relative viability ([4]; first compound 0.3162 µM) | relative viability ([4]; first compound 1 µM) | relative viability ([4]; first compound 3.162 µM) | relative viability ([4]; first compound 10 µM)
1 | ABC-1 | 1.23 | 1.42 | 1.12 | 1.18 | 1.24 | 0.676 | 0.344 | 0.238 | 0.276 | 0.324 | 0.103 |  |  |  |  |  |  | 
2 | H3255 | 0.249 | 0.193 | 0.174 | 0.192 | 0.213 | 0.439 | 0.26 | 0.298 | 0.529 | 0.299 | 0.392 | 0.803 | 0.432 | 0.489 | 0.396 | 0.598 | 0.5 | 0.237
3 | HCC-827 | 0.189 | 0.197 | 0.211 | 0.213 | 0.162 | 0.302 | 0.241 | 0.258 | 0.923 | 0.639 | 0.416 | 0.599 | 1.03 | 0.998 | 0.954 | 1.03 | 1.08 | 0.973
4 | NCI-H1734 | 1.08 | 1.08 | 1.1 | 1.08 | 0.998 | 0.355 | 0.155 | 0.195 | 0.674 | 0.207 | 0.174 | 0.797 | 0.797 | 0.867 | 1.49 | 0.911 | 0.899 | 0.803
5 | EBC-1 | 0.186 | 0.189 | 0.215 | 0.197 | 0.181 | 0.405 | 0.211 | 0.177 | 0.437 | 0.474 | 0.143 | 0.675 | 0.421 | 0.358 | 0.294 | 0.401 | 0.366 | 0.223
6 | NCI-H838 | 0.905 | 0.945 | 1.12 | 1.17 | 1.01 | 0.849 | 0.372 | 0.228 | 0.588 | 0.583 | 0.149 | 1.17 | 0.986 | 1.17 | 1.31 | 1.27 | 1.22 | 1.1
7 | NCI-H1437 | 0.904 | 1.08 | 0.907 | 1.06 | 0.746 | 0.593 | 0.28 | 0.142 | 0.355 | 0.285 | 0.171 | 0.61 | 0.399 | 1.08 | 1.33 | 1.13 | 1.09 | 0.998
8 | NCI-H1915 | 1.02 | 1.22 | 1.13 | 1.03 | 0.993 | 0.238 | 0.187 | 0.171 | 0.445 | 0.24 | 0.148 | 0.374 | 0.537 | 0.776 | 0.83 | 0.8 | 0.821 | 0.78
9 | SK-MES-1 | 0.471 | 0.49 | 0.519 | 0.51 | 0.422 | 0.646 | 0.315 | 0.281 |  |  |  | 0.997 |  | 1.31 | 1.55 | 1.33 | 1.25 | 1.12
